Source: patent US20210308166A1, “ANTIOXIDANT COMPOSITION COMPRISING NOVEL GINSENOSIDE” (AMOREPACIFIC CORPORATION, priority 2018, published 2021)

What was measured:
RAW 264.7 macrophages = test: Scavenging of LPS-induced reactive oxygen species, H2DCFDA fluorescence; format: cell-based
Experimental: RAW 264.7 macrophages purchased from ATCC were cultured in Dulbecco's modified Eagle's medium (Sigma) supplemented with 10% fetal bovine serum (FBS; HyClone) and 1% penicillin/streptomycin (Sigma) in a 5% CO2 incubator. After treating the RAW 264.7 cells with NAC (N-acetylcysteine; positive control group; Sigma) or each of the 7 ginsenosides extracted from the ginseng seed (GS #01 to GS #06 and GS #10; 10 μM each) for 1 hour, lipidpolysaccharides (LPS; inflammation/oxidative stress-induced group, Sigma) ware administered at a concentration of 10 ng/mL concentration for 30 minutes. Then, the cells were treated with 10 μM H2DCFDA (2′,7′-dichlorodihydrofluorescein diacetate; Invitrogen) for 30 minutes for measurement of reactive oxygen species. The amount of accumulated reactive oxygen species was measured using a TECAN multiplate reader (Tecan AG, excitation 485 nm, emission 530 nm).
The reactive oxygen species-scavenging ability of the novel ginsenoside GS #10 (isolated from the ginseng seed extract) according to an exemplary embodiment of the present disclosure was compared with that of three ginsenosides (Rg1, Rg3 and Rb1; Sigma), which are marker compounds of red ginseng as comparative examples of the present disclosure, in the same manner as in Test Example 2. The concentrations of the ginsenosides were 1 and 10 μM.

[1] = DPPH radical-scavenging (DPPH inhibition) assay; format: biochemical
Experimental: The DPPH (2,2-diphenyl-1-picrylhydrazyl) radical dissolved in an organic solvent has maximum absorbance at 515 nm. An antioxidant substance scavenges the DPPH radical, thereby turning the solution colorless and transparent. Accordingly, antioxidant effect can be compared by measuring the DPPH radical-scavenging activity of the ginsenosides through DPPH assay.
First, a DPPH solution was prepared by dissolving 4 mg of DPPH (Sigma) in 100 mL of ethanol (Sigma). Then, 10 μM of the novel ginsenoside GS #10 of an exemplary embodiment of the present disclosure or each of the ginsenosides GS #01 to GS #06 as comparative examples of the present disclosure, isolated from the ginseng seed extract, were dissolved in 200 μL of the DPPH solution. Trolox (Sigma; 10 μM) was used as a positive control group. After keeping the reaction solution at room temperature for 30 minutes, absorbance was measured at a wavelength of 515 nm.
DPPH-inhibiting effect was compared in the same manner as in Test Example 1. The novel ginsenoside GS #10 (isolated form the ginseng seed extract) according to an exemplary embodiment of the present disclosure was compared with three marker compounds of red ginseng (Rg1, Rg3 and Rb1; Sigma) as comparative examples of the present disclosure. The concentrations of the ginsenosides were 1 and 10 μM. […]

SH-SY5Y cells = test: Cytotoxicity / cell viability, CCK-8; format: cell-based; conditions: SH-SY5Y cells, 0.1, 1, 5, 10, 20 and 50 μM, CCK-8 (FIG. 15)
Experimental: In order to exclude the possibility that the ginsenoside might affect antioxidant effect through cytotoxic activity, cell growth in the presence of the novel ginsenoside GS #10 according to an exemplary embodiment of the present disclosure was evaluated as follows using CCK (Cell Counting Kit)-8.
After adding 10 μL of CCK-8 reagent to SH-SY5Y cells (Dojindo, Md., USA) on a 96-well plate and maintaining at 37° C. for 2 hours, absorbance was measured at 450 nm. Cell viability was represented as the percentage (%) of the absolute optical density of each sample with respect to an untreated sample. The concentrations of the novel ginsenoside GS #10 according to an exemplary embodiment of the present disclosure in the medium for culturing the cells were 0.1, 1, 5, 10, 20 and 50 μM.

CC1(C)C(=O)CC[C@@]2(C)C1[C@@H](O[C@H]1OC(CO)[C@H](O)C(O)C1O[C@H]1OC(CO)[C@H](O)C(O)C1O)C[C@]1(C)C2C[C@@H](O)C2C([C@]3(C)CC[C@H](C(C)(C)O)O3)CC[C@]21C (stereo partly drawn) [Compound 10, (20S,24R)-6-O-β-D-glucopyranosyl(1->2)-β-D-glucopyranoside-dammar-3-one-20,24-epoxy-6a,12b,25-triol]
removal of reactive oxygen species induced by LPS (RAW 264.7 macrophages; 10 μM for 1 hour, then LPS 10 ng/mL 30 minutes, compared to Compounds 1-6 at the same concentration (FIG. 12)): can effectively remove the reactive oxygen species induced by LPS | production of reactive oxygen species (RAW 264.7 macrophages; 1 and 10 μM, LPS-treated RAW 264.7 cells (FIG. 14)): decreased as the concentration of the novel ginsenoside GS #10 according to the present disclosure was increased | reactive oxygen species-scavenging ability (RAW 264.7 macrophages; 1 and 10 μM, compared to ginsenosides Rg1, Rg3 and Rb1 (FIG. 14)): remarkably superior | DPPH (reactive oxygen species)-scavenging ability, i.e., DPPH-inhibiting ability ([1]; 10 μM, room temperature 30 minutes, absorbance 515 nm, compared to Compounds 1-6 at the same concentration (FIG. 11)): remarkably higher DPPH (reactive oxygen species)-scavenging ability | DPPH-inhibiting effect ([1]; 1 and 10 μM, compared to ginsenosides Rg1, Rg3 and Rb1, marker compounds of red ginseng (FIG. 13)): remarkably excellent DPPH-inhibiting effect | cytotoxicity (cell viability, % of untreated sample) (SH-SY5Y cells): no cytotoxicity up to 50 μM
